Test results taken from patent US8470765B2, “Polypeptides and antibacterial or antiseptic use of same” (AnGes MG, Inc., priority 2009, dated 2013).
Converted amounts (≈) assume the structure as drawn. Read-outs that look alike come from different tables or passages of the source. No end group written: not given here.

Columns and labels:
[1] = system: Pseudomonas aeruginosa ATCC 27853; assay: ATP Assay (viability at 3 hours), Table 6; type: cell-based; details: for Pseudomonas aeruginosa ATP (viability, relative value to negative control): 3 h, 5 μg/mL
Procedure: (§1) Bacteria (Escherichia coli ATCC 25922, Pseudomonas aeruginosa ATCC 27853, Staphylococcus aureus ATCC29213, and Staphylococcus epidermidis JCM 2414) were inoculated to Mueller-Hinton broth: MHB or LB medium, and cultured at a temperature and period suited for each strain. From the thus obtained colonies, each strain was inoculated to a fresh liquid medium and cultured for 16 to 20 hours. Then an aliquot having a volume (10 to 50 μL) appropriate to each strain was inoculated to a fresh liquid medium and cultured for 4 to 6 hours, followed by the measurement of the absorbance at 600 nm. After comparing the turbidity with McFarland #0.5, the resultant was diluted with a medium. Each strain was added to about 10^5 CFU/mL (final concentration).
(§2) Each of the peptide solutions to be tested was diluted with the medium to obtain a solution of 10 μg/mL. As positive controls, tobramycin (TOB), oxacillin (OX) and meropenem (MEPM) were used. By dilution with sterilized purified water to 1.0 mg/mL, positive control-containing media having concentrations of […], respectively for TOB; 0.5, 0.12 and 0.06 μg/mL, respectively, for OX; and 1.0, 0.25, 0.12, 0.06, 0.03 and 0.008 μg/mL respectively, for MEPM, were prepared. To a 96-well microtiter plate, 0.1 mL of the inoculation solution and 0.1 mL of the peptide- or positive control-containing medium having the respective concentration were added, and cultured at 37° C. for 3 hours. The well not containing the sample was used as a negative control. After the culturing, ATP was measured using BacTiter-Glo Microbial Cell Viability Assay kit of PROMEGA, and compared with that in the negative control to obtain a relative value which was defined as a viability. The antibacterial activity was evaluated based on the viability at 3 hours later using ATP as an index.
(§3) The medium used in this test for bacteria was Mueller-Hinton broth. Independent experiments were carried out twice for each strain.

[2] = system: Staphylococcus aureus ATCC29213; assay: ATP Assay (viability at 3 hours), Table 6; type: cell-based; details: for Staphylococcus aureus ATP (viability, relative value to negative control): 3 h, 5 μg/mL
Procedure: as §1, §2, §3

[3] = system: Escherichia coli ATCC 25922; assay: ATP Assay (viability at 3 hours), Table 6; type: cell-based; details: for Escherichia coli ATP (viability, relative value to negative control): 3 h, 5 μg/mL
Procedure: as §1, §2, §3

[4] = system: Staphylococcus aureus ATCC29213; assay: microbe, parasite or virus in culture; type: cell-based
Procedure: (§4) Bacteria (Escherichia coli ATCC 25922, Pseudomonas aeruginosa ATCC 27853, Staphylococcus aureus ATCC29213, Klebsiella pneumoniae JCM 1662, Enterobacter cloacae JCM 1232, Enterobacter aerogenes JCM 1235 and Staphylococcus epidermidis JCM 2414) were inoculated to Mueller-Hinton broth: MHB or LB medium, and cultured at a temperature and period suited for each strain. From the thus obtained colonies, each strain was inoculated to a fresh liquid medium and cultured for 16 to 20 hours. Then an aliquot having a volume (10 to 50 appropriate to each strain was inoculated to a fresh liquid medium and cultured for 4 to 6 hours, followed by the measurement of the absorbance at 600 nm. After comparing the turbidity with McFarland #0.5, the resultant was diluted with a medium. Each strain was added to about 10^5 CFU/mL (final concentration). Each of the peptide solutions to be tested was diluted with MHB to obtain a solution of 128 μg/mL. […] As controls, tobramycin (TOB: aminoglucoside antibiotic), oxacillin (OX:β-lactam antibiotic), meropenem (MEPM: carbapenem antibiotic) and ciprofloxacin (new quinolone antibiotic) were used. […] To a 96-well microtiter plate, 0.1 mL of the inoculation solution and 0.1 mL of the peptide- or positive control-containing medium having the respective concentration were added, and cultured at 37° C. for 16 to 24 hours (or a time period suited for the growth of the respective strain). The well not containing the sample was used as a negative control. After the culturing, the growth was visually observed, and the minimum concentration at which the growth was inhibited was defined as the minimum growth inhibition concentration (MIC). The medium used in this test for bacteria was Mueller-Hinton broth. Independent experiments were carried out twice or more for each strain.

[5] = system: Staphylococcus epidermidis JCM 2414; assay: microbe, parasite or virus in culture; type: cell-based; details: for MIC Staphylococcus epidermidis: JCM 2414
Procedure: as §4

[6] = system: methicillin-sensitive Staphylococcus (MSSA) MSSA(ii); assay: organism not typed; details: read-out: MIC MSSA(ii)
Procedure: as §1, with “ATCC29213, Klebsiella pneumoniae JCM 1662, Enterobacter cloacae JCM 1232, Enterobacter aerogenes JCM 1235” for “ATCC29213,”, “50” for “50 μL)”
(§5) Further, the antibacterial activities against the clinical strains collected and isolated from infected patients were also examined. The tests were carried out for two methicillin-resistant Staphylococcus (MRSA) (MRSA (i) and (ii)), two methicillin-sensitive Staphylococcus (MSSA) (MSSA (i) and (ii)), five Pseudomonas aeruginosa, Pseudomonas aeruginosa 1, Pseudomonas aeruginosa 6, Pseudomonas aeruginosa 8. Pseudomonas aeruginosa 9 and Pseudomonas aeruginosa 12, totally 9 clinical strains. The MRSA and MSSA clinical strains were tested by the same method as Staphylococcus aureus ATCC29213, and Pseudomonas clinical strains were tested by the same method as Pseudomonas aeruginosa ATCC 27853.
(§6) Each of the peptide solutions to be tested was diluted with MHB to obtain a solution of 128 μg/mL. This solution was serially diluted with the medium to prepare peptide-containing media having concentrations of 128, 64, 32, 16, 8.0, 4.0 and 2.0 μg/mL respectively. […] By dilution with sterilized purified water to 1.0 mg/mL, positive control-containing media having concentrations of 16, 8, 4, 2, 1.0, 0.25, 0.12 and 0.06 μg/mL, respectively for TOB; 0.5, 0.12 and 0.06 μg/mL, respectively, for OX; and 16, 8, 4, 2, 1.0, 0.25, 0.12, 0.06, 0.06, 0.03 and 0.008 μg/mL, respectively, for MEPM, were prepared.
(§7) To a 96-well microtiter plate, 0.1 mL of the inoculation solution and 0.1 mL of the peptide- or positive control-containing medium having the respective concentration were added, and cultured at 37° C. for 16 to 24 hours (or a time period suited for the growth of the respective strain). The well not containing the sample was used as a negative control. After the culturing, the growth was visually observed, and the minimum concentration at which the growth was inhibited was defined as the minimum growth inhibition concentration (MIC).
(§8) The medium used in this test for bacteria was Mueller-Hinton broth. Independent experiments were carried out twice or more for each strain.

[7] = system: methicillin-resistant Staphylococcus (MRSA) MRSA(ii); assay: organism not typed; details: read-out: MIC MRSA(ii)
Procedure: as §1, with “ATCC29213, Klebsiella pneumoniae JCM 1662, Enterobacter cloacae JCM 1232, Enterobacter aerogenes JCM 1235” for “ATCC29213,”, “50” for “50 μL)”
as §5, §6, §7, §8

[8] = system: methicillin-sensitive Staphylococcus (MSSA) MSSA(i); assay: organism not typed; details: read-out: MIC MSSA(i)
Procedure: as §1, with “ATCC29213, Klebsiella pneumoniae JCM 1662, Enterobacter cloacae JCM 1232, Enterobacter aerogenes JCM 1235” for “ATCC29213,”, “50” for “50 μL)”
as §5, §6, §7, §8

[9] = system: methicillin-resistant Staphylococcus (MRSA) MRSA(i); assay: organism not typed; details: read-out: MIC MRSA(i)
Procedure: as §1, with “ATCC29213, Klebsiella pneumoniae JCM 1662, Enterobacter cloacae JCM 1232, Enterobacter aerogenes JCM 1235” for “ATCC29213,”, “50” for “50 μL)”
as §5, §6, §7, §8

[10] = system: Bacteroides fragilis JCM 11019
[11] = system: Micrococcus luteus NBRC13867
[12] = system: Salmonella typhimurium JCM1652
[13] = system: Bacillus subtilis NBRC3134; details: NBRC3134
[14] = system: Salmonella enteritidis IID 604; details: IID 604
Fusarium solani JCM11383 = details: JCM11383
[15] = system: Trichophyton mentagrophytes NBRC6124; details: NBRC6124
[16] = system: Alternaria alternata JCM5800
[17] = system: Actinobacillus actinomycetemcomitans JCM2434
[18] = system: Pseudomonas aeruginosa ATCC 27853; assay: microbe, parasite or virus in culture; type: cell-based
Procedure: as §4

[19] = system: Escherichia coli ATCC 25922; assay: microbe, parasite or virus in culture; type: cell-based; details: Table 4; two tests, first/second value where not identical
Procedure: as §4

[20] = system: Streptococcus pyogenes JCM5674
[21] = system: Fusobacterium nucleatum JCM 11025
[22] = system: Acinetobacter baumanni JCM6841; details: JCM6841
[23] = system: Trichophyton rubrum NBRC9185; details: NBRC9185
[24] = Table 4, two tests, first/second value where not identical

| Compound | MIC Bacteroides fragilis [10, 24] | MIC Micrococcus luteus [11] | MIC Bacillus subtilis [13] | MIC Salmonella Enteritidis [14] | MIC Fusarium solani (Fusarium solani JCM11383) | MIC Trichophyton mentagrophytes [15] | MIC Alternaria alternata ([16]; JCM5800) | Pseudomonas aeruginosa ATP (viability, relative value to negative control) [1] | Staphylococcus aureus ATP (viability, relative value to negative control) [2] | Escherichia coli ATP (viability, relative value to negative control) [3] | MIC Actinobacillus actinomycetemcomitans [17] | MIC Pseudomonas aeruginosa [18, 24] | MIC Staphylococcus aureus [4, 24] | MIC Escherichia coli [19] | MIC Staphylococcus epidermidis [5] | MIC Streptococcus pyogenes [20] | MIC Acinetobacter baumanni [22] | MIC Trichophyton rubrum [23] | MIC Salmonella Typhimurium ([12]; JCM1652) | MIC Candida krusei (Candida krusei NBRC1395; NBRC1395) | other results |
| --- | --- | --- | --- | --- | --- | --- | --- | --- | --- | --- | --- | --- | --- | --- | --- | --- | --- | --- | --- | --- | --- |
| Cc1onc(-c2ccccc2)c1C(=O)N[C@@H]1C(=O)N2[C@@H]1SC(C)(C)[C@@H]2C(=O)O [oxacillin, reference compound] |  |  |  |  |  |  |  |  |  |  |  |  |  |  |  |  |  |  |  |  | viability at 10 µg/mL ([1]; ATCC27853, 3 h, read-out: Pseudomonas aeruginosa ATP (viability, relative value to negative control)): 100%; viability at 10 µg/mL ([2]; ATCC29213, 3 h, read-out: Staphylococcus aureus ATP (viability, relative value to negative control)): 121%; viability at 10 µg/mL ([3]; ATCC25922, 3 h, read-out: Escherichia coli ATP (viability, relative value to negative control)): 142%; MIC ([4]; Staphylococcus aureus, ATCC29213, read-out: MIC Staphylococcus aureus, Table 4, two tests, first/second value where not identical): 0.15 to 0.5 mg/L (≈ 0.374 to 1.25 µM); MIC ([5]; Staphylococcus epidermidis, JCM2414, read-out: MIC Staphylococcus epidermidis, Table 4, two tests, first/second value where not identical): 0.15 to 0.5 mg/L (≈ 0.374 to 1.25 µM); MIC [6]: 2 mg/L (≈ 4.98 µM); MIC [7]: > 8000 mg/L; MIC [8]: 8 mg/L (≈ 19.9 µM); MIC [9]: < 4000 mg/L |
| Ac-GRLKRMGKRLKRKIQKWARW-NH2 [SRP-18] | 64/32 | 1 mg/L | 2 mg/L | 2 mg/L | 8 mg/L | 16 mg/L | 32 mg/L | 1.5 | 2.0 | 1.7 | 64 mg/L | 4/8 | 8/16 | 8/16 | 8 mg/L | 16 mg/L | 32 mg/L | 32 mg/L |  |  | MIC Salmonella Typhimurium [12, 24]: 4/2; MIC Candida krusei (Candida krusei NBRC1395; [24]): 32/16; MIC Fusobacterium nucleatum [21, 24]: 32/16 |
| Ac-KLIFLRELRRLRKRLKRKLR-NH2 [SRP-20] | 8/16 | 2 mg/L | 2 mg/L | 4 mg/L | 4 mg/L | 16 mg/L |  | 1.1 | 3.2 | 6.2 | 128 mg/L | 8/16 |  | 8/16 | 8000 to 16000 mg/L | 32 mg/L | 16 mg/L | 32 mg/L | 4 mg/L | 16 mg/L | MIC Alternaria alternata [16, 24]: 32/64; MIC Staphylococcus aureus ([4]; ATCC29213): 16 mg/L; MIC Fusobacterium nucleatum ([21]; JCM 11025): 4 mg/L |
| GRLKRMGERLKRKIQKLIRL-NH2 [SRP-21] |  | 1 mg/L | 2 mg/L | 2 mg/L | 16 mg/L | 64 mg/L | 64 mg/L | 3.8 | 1.8 | 3.7 | 32 mg/L |  | 8/32 | 16/32 | 8000 to 16000 mg/L | 8 mg/L | 32 mg/L | 128 mg/L | 2 mg/L | 32 mg/L | MIC Bacteroides fragilis ([10]; JCM 11019): 16 mg/L; MIC Pseudomonas aeruginosa ([18]; ATCC 27853): 8 mg/L; MIC Fusobacterium nucleatum ([21]; JCM 11025): 4 mg/L |
